Here are results for five compounds from US20210338749A1, “METHODS OF TREATMENT OF INFLAMMATORY CONDITIONS AND ASSOCIATED INFECTIONS” (Servatus Ltd., priority 2018, published 2021).

The subject of assay [1] is DSS-induced ulcerative colitis. The settings on record: chronic 2% DSS murine model, previous data obtained by CRL; cited from earlier work.
For assay [2], the system named is Staphylococcus aureus (ATCC 29213). The assay is described as follows: Agar well diffusion assay. The format is cell-based. Conditions: S. aureus (ATCC 29213), includes well diameter of 9 mm. The procedure:
(§1) Inhibition of pathogen growth was determined using an agar well diffusion assay. Cultures of the five test Lactobacillus species were grown in MRS broth for 24 hours at 37° C. Each pathogen was sub-cultured onto nutrient agar plates or 5% CBA plates and incubated under the appropriate conditions (as described above) prior to resuspension in DPBS to give a McFarland standard of 0.5 (equivalent to 10^8 CFU/mL). Each 0.5 McFarland standardised culture was spread, using a swab, onto nutrient agar plates or CBA plates and allowed to soak in prior to making 9 mm wells. 100 μL of each test Lactobacillus, was then added to individual wells and the plates were incubated for 24 hours at 37° C. […] Following incubation, zones of inhibition or zones of growth reduction (hazing of growth) were measured (mm) and recorded. Two readings were taken for each zone and three replicates were used.
(§2) The ability of L. diolivorans, L. paracasei, L. parafarraginis, L. rapi and L. zeae deposited pursuant to the Budapest Treaty as described hereinbefore were then tested for their ability to inhibit the growth of pathogenic bacteria Staphylococcus aureus (ATCC 29213 and ATCC 25923), Staphylococcus epidermidis (clinical isolate), Pseudomonas aeruginosa (ATCC 27853) and Escherichia coli K12. These pathogens were grown under aerobic conditions at 37° C. in nutrient agar. Inhibition of growth was determined using an agar well diffusion assay as described above. In addition, cell free supernatants derived from culture of the Lactobacillus species were also tested. Briefly, after 24 hours growth, cultures of Lactobacillus were centrifuged at 10,000×g and the supernatant filter sterilised through a 0.2 μm membrane. 100 μl of cell free supernatant was added to the wells containing pathogen.
(In general: In agar diffusion tests the substance spreads into inoculated agar from a disc or well.)

Assay [3] deals with Pseudomonas aeruginosa (ATCC 27853). The assay can be described thus: Agar well diffusion assay. The format is cell-based. The settings on record: P. aeruginosa, includes well diameter of 9 mm. The method, then: as §1, §2
In assay [4] the test system is Staphylococcus aureus (ATCC 25923). The assay can be described thus: Agar well diffusion assay. The format is cell-based. Conditions: S. aureus (ATCC 25923), includes well diameter of 9 mm. The procedure: as §1, §2
For assay [5], the system named is Escherichia coli K12. The assay can be described thus: Agar well diffusion assay. The settings on record: E. coli, includes well diameter of 9 mm. The class given is cell-based. The method, then:
as §1, §2

Assay [6] deals with Klebsiella oxytoca (ATCC 700324). The assay is described as follows: Agar well diffusion assay. Conditions: K. oxytoca; 100 μL culture per 9 mm well, 24 hours; ciprofloxacin 5 μg. The class given is cell-based. The procedure: (§3) The ability of the Lactobacillus species L. diolivorans, L. paracasei, L. parafarraginis, L. rapi and L. zeae deposited pursuant to the Budapest Treaty as described hereinbefore were tested for their ability to inhibit the growth of bacterial pathogens associated with inflammation and various inflammatory conditions. Pathogens tested for this purpose were Campylobacter jejuni (ATCC 33291), Helicobacter pylori (ATCC 700824), Clostridium difficile (ATCC 9689), Salmonella typhimurium (ATCC 29630), Yersinia enterocolitica (ATCC 23715), Citrobacter sp (ATCC 51378), Streptococcus pyogenes (ATCC 19615), Streptococcus mutans (ATCC 25175), Klebsiella oxytoca (ATCC 700324), and Proteus mirabilis (ATCC 25933). C. jejuni and H. pylori were grown under microaerobic conditions at 37° C. in 5% Columbia horse blood agar (CBA). S. typhimurium, Y. enterocolitica, Citrobacter sp., K. oxytoca and P. mirabilis were grown under aerobic conditions at 37° C. in nutrient agar. S. pyogenes and S. mutans were grown under aerobic conditions with 5% CO2 at 37° C. in 5% CBA. C. difficile was grown under anaerobic conditions at 37° C. in 5% CBA.
as §1

Assay [7] deals with Proteus mirabilis (ATCC 25933). The assay is described as follows: Agar well diffusion assay. Conditions: P. mirabilis; 100 μL culture per 9 mm well, 24 hours; ciprofloxacin 5 μg. The class given is cell-based. The procedure: as §3, §1
Assay [8] concerns Streptococcus mutans (ATCC 25175). The assay can be described thus: Agar well diffusion assay. The format is cell-based. Conditions: S. mutans; 100 μL culture per 9 mm well, 24 hours; ciprofloxacin 5 μg. The method, then: as §3, §1
Assay [9] concerns Helicobacter pylori (ATCC 700824). The assay can be described thus: Agar well diffusion assay. The settings on record: H. pylori; 100 μL culture per 9 mm well, 24 hours; ciprofloxacin 5 μg. The format is cell-based. The procedure:
as §3, §1

In assay [10] the test system is Salmonella typhimurium (ATCC 29630). The assay is described as follows: Agar well diffusion assay. The class given is cell-based. The settings on record: S. typhimurium; 100 μL culture per 9 mm well, 24 hours; ciprofloxacin 5 μg. The method, then:
as §3, §1

Assay [11] has as its system Streptococcus pyogenes (ATCC 19615). The assay can be described thus: Agar well diffusion assay. The class given is cell-based. Conditions: S. pyogenes; 100 μL culture per 9 mm well, 24 hours; ciprofloxacin 5 μg. The procedure:
as §3, §1

For assay [12], the system named is Citrobacter sp (ATCC 51378). The assay is described as follows: Agar well diffusion assay. The format is cell-based. The settings on record: 100 μL culture per 9 mm well, 24 hours, ciprofloxacin 5 μg. The procedure:
as §3, §1

Assay [13] has as its system Campylobacter jejuni (ATCC 33291). The assay can be described thus: Agar well diffusion assay. The class given is cell-based. The settings on record: C. jejuni; 100 μL culture per 9 mm well, 24 hours; ciprofloxacin 5 μg. The procedure: as §3, §1
For assay [14], the system named is Yersinia enterocolitica (ATCC 23715). The assay is described as follows: Agar well diffusion assay. The format is cell-based. The settings on record: Y. enterocolitica; 100 μL culture per 9 mm well, 24 hours; ciprofloxacin 5 μg. The method, then:
as §3, §1

Setting [15] is: cell free supernatants derived from Lactobacilli cultures.

Turning to `Nc1nc2nc[nH]c2c(=S)[nH]1` [6-Thioguanine], in [1], the “Therapeutic efficacy (DAI score)” value is reported as “failed to demonstrate therapeutic efficacy”.

Take `Nc1ccc(O)c(C(=O)O)c1` [5-Aminosalicylic acid]: the “Therapeutic efficacy (DAI score)” value in assay [1] is “failed to demonstrate therapeutic efficacy”.

For `O=C(O)c1cc(/N=N/c2ccc(S(=O)(=O)Nc3ccccn3)cc2)ccc1O` [Sulfasalazine], the “Therapeutic efficacy (DAI score)” value in [1] is recorded as “failed to demonstrate therapeutic efficacy”.

With `O=C(O)c1cn(C2CC2)c2cc(N3CCNCC3)c(F)cc2c1=O` [Ciprofloxacin, ciprofloxacin], the “Zones of inhibition/zones of growth reduction” value in assay [2] (setting [15]) is 33.7 mm; in assay [2] (live cultures of Lactobacilli), 33.7 mm; in assay [3] (setting [15]) it was 39.2 mm; in assay [3] (live cultures of Lactobacilli), 39.2 mm; in assay [4] (setting [15]), 33.7 mm; in assay [4] (live cultures of Lactobacilli), 33.7 mm. Further, the “Zones of inhibition/zones of growth reduction” value was 40.0 mm in [5] (setting [15]); 40.0 mm in assay [5] (live cultures of Lactobacilli); 41.2 mm in [6]; 44.2 mm in assay [7]; 28.5 mm in [8]; 31.7 mm in assay [9]. Further, the “Zones of inhibition/zones of growth reduction” value amounted to 49 mm in assay [10]; 30.2 mm in [11]; 47.0 mm in assay [12]; 30.2 mm in assay [13]; 44.2 mm in assay [14].

Consider `C[C@]12C=CC(=O)C=C1CC[C@@H]1[C@@H]2[C@@H](O)C[C@@]2(C)[C@H]1CC[C@]2(O)C(=O)CO` [Prednisolone], for which, in [1], the “Therapeutic efficacy (DAI score)” value was “failed to demonstrate therapeutic efficacy”.
